Test results published in patent EP1701623B1, “METHODS FOR WASHING POULTRY DURING PROCESSING WITH MEDIUM CHAIN PEROXYCARBOXYLIC ACID COMPOSITIONS” (ECOLAB INC., priority 2004, dated 2005).

Legend:
Bacterial Spores = assay: Antimicrobial activity against bacterial spores versus conventional compositions; assay type: cell-based; details: 0.5 min, pH 3.32, 35%
Experimental: (§1) Antimicrobial activity was determined according to two well established methods. The first method was the procedure set out in Germicidal and Detergent Sanitizing Action of Disinfectants, Official Methods of Analysis of the Association of Official Analytical Chemists, paragraph 960.09 and applicable sections, 15th Edition, 1990 (EPA Guideline 91-2). The second method was the procedure described in A.O.A.C. Use Dilution Methods, Official Methods of Analysis of the Association of Official Analytical Chemists, paragraph 955.14 and applicable sections, 15th Edition, 1990 (EPA Guideline 91-2). Briefly, antimicrobial activity of the present compositions was determined by exposing a one mL aliquot containing the target microorganism to 99 mL of the desired concentration of the test substance at the desired temperature. After the specified contact time, one mL of the test solution containing the microorganism was neutralized and enumerated for survivors.

S. aureus = assay: Antimicrobial activity, AOAC sanitizing/use dilution suspension test; assay type: cell-based; details: Staphylococcus aureus
Experimental: as §1

Structure (SMILES)	log reduction at 35 % (Bacterial Spores; 40 °C, 30 sec)	log reduction at 35 % (Bacterial Spores; 40 °C, 60 sec)	log reduction at 35 % (Bacterial Spores; 40 °C, 120 sec)	log reduction at 35 % (Bacterial Spores; 60 °C, 10 sec)	log reduction at 35 % (Bacterial Spores; 60 °C, 20 sec)	log reduction at 35 % (Bacterial Spores; 60 °C, 30 sec)	log reduction at 35 % (Bacterial Spores; 80 °C, 10 sec)	log reduction at 35 % (Bacterial Spores; 80 °C, 20 sec)	log reduction at 35 % (Bacterial Spores; 80 °C, 30 sec)	log reduction at 5 µg/mL (S. aureus; concentration of 5 ppm and pH of ∼5, Table 25, read-out: log reductions of Staphylococcus aureus)	log reduction at 11 µg/mL (S. aureus; pH 6.1, pH of 6.1, 11 ppm of peroxyoctanoic acid (POOA), Table 13 (composition K), read-out: reducing S. aureus)
OO [Composition H2O2, hydrogen peroxide]	1.19	2.94	> 6.3	1.59	4.85	4.89	> 6.3	> 6.3	> 6.3	–	–
CCCCCCCC(=O)OO [Pure POOA Crystals, peroxyoctanoic acid]	–	–	–	–	–	–	–	–	–	5	> 7.04
